Measurements published in US6124460A, “Isoquinuclidine derivatives, method of manufacturing the same and therapeutic agents for hypercholesterolemia containing these compounds” (Kotobuki Pharmaceutical Co. Ltd., priority 1998, dated 2000).
Counter-ions that a name gives are not always drawn.

Key:
[1] = molecular target: T1, Squalene Synthase in Rat Liver Microsomes (Rattus norvegicus, UniProt Q02769); experiment: Assay of squalene synthase (SQS) in rat liver microsomes; assay type: biochemical, male Sprague-Dawley rat; details: for IC50: 2.5 μM FPP, pH 7.4, 30 min at 37° C., read-out: Inhibition of SQS IC50; for Inhibition of SQS (N.E.; no effect at a dose in the parentheses): at 10^-5 M
T1 construct: microsomes were prepared from male Sprague-Dawley rat; from tissue; host or cells: rat liver microsomes (male Sprague-Dawley)
T1 sequence (Q02769 1-416): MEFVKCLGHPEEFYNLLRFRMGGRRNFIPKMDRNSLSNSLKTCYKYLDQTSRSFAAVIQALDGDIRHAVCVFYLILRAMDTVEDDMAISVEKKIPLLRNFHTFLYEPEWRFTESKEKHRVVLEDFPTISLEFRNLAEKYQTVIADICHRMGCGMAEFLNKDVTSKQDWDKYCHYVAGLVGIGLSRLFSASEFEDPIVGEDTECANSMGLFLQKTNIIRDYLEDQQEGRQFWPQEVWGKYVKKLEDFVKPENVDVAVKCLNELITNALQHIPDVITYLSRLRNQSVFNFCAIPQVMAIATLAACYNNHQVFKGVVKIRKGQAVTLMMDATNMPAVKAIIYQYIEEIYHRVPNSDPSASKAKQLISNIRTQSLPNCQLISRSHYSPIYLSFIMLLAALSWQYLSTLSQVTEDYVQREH
Procedure: 1. Assay of Squalene Synthase in Rat Liver Microsomes Squalene synthase assay was performed in accordance with the method described by [NT] (Biochem. Pharmacol., 51, 1477 (1996)). That is to say, microsomes were prepared from male Sprague-Dawley rat (weight range 250-300 g) by homogenising in 50 mM phosphate buffer, pH 7.4, 5.0 mM MgCl2, 1.0 mM EDTA, and 1.0 mM dithiothreitol using a polytron (Kinetica, Sweden). The homogenates were centrifuged at 10,000 g for 20 min at 4° C., and, after spinning the supernatants were poured into the tube through cotton gauze. Microsomes were then isolated from the supernatant by centrifugation at 178,000 g for 90 min at 4° C. Microsomes were then resuspended in homogenisation buffer and stored in aliquots at -80° C. until use. For in vitro studies, the compounds were dissolved in DMSO. The squalene synthase reaction system in a volume of 100 μl contained 50 mM phosphate buffer, pH 7.4, 5.0 mM MgCl2, 10 mM KF, 0.5 mM NADPH, 50 mM ascorbic acid, 20U /ml ascorbate oxidase, 2.5 μM farnesyl-pyrophosphate (FPP) and microsomes, 40 μg/ml. The compounds (in 1 μl DMSO), microsomes (in 10 μl buffer) and other reagent ([…]) were pre-incubated for 5 min at 37° C. The reactions were started by the addition of 5 μl of an aqueous solution of FPP containing about 0.1 μCi of [H] FPP; incubations were at 37° C. for 30 min. The reactions were then stopped by the addition of 50 μl of 20% KOH in 50% ethanol. […] The IC50 values were calculated.

[2] = test system: Sterol Biosynthesis; experiment: Assay of sterol biosynthesis in rats (inhibition of cholesterol biosynthesis); assay type: in vivo; details: female Sprague-Dawley rats, liver; for inhibition at 30 mg/kg: po, vs vehicle-treated controls; for inhibition at 30 mg/kg / Inhibition of cholesterol biosynthesis (N.E.; no effect at a dose in the parentheses): 30 mg/kg p.o.

IC50 [1]	SMILES	other results
490 nM	C#Cc1ccc(OCCCCN2C(=O)C3CCC2CC3)cc1 [Compound 14, 2-[4-(4-ethynylphenoxy)butane-1-yl]-2-azabicyclo[2.2.2]-octane-3-one]	–
39 nM	Cl.O=C(O)c1ccc(C#Cc2ccc(OCCCN3CC4CCC3CC4)cc2)cc1 [Compound 19, 4-[4-[3-(2-azabicyclo[2.2.2]octan-2-yl)propoxy]phenylethynyl]-benzoic acid hydrochloride]	Inhibition of cholesterol biosynthesis (N.E.; no effect at a dose in the parentheses) [2]: N.E.
19 nM	C#Cc1ccc(OCCCN2CC3CCC2CC3)cc1 [Compound 10, 2-[3-(4-ethynylphenoxy)propane-1-yl]-2-azabicyclo[2.2.2]octane hydrochloride]	inhibition at 30 mg/kg ([2]; Rattus norvegicus): 48.6%
56000 nM	O=C1C2CCC(CC2)N1CCCOc1ccc(C#Cc2ccc(N3C(=O)C4CCC3CC4)cc2)cc1 [Compound 24, 2-[3-[4-[4-(3-oxo-2-azabicyclo[2.2.2]octan-2-yl)phenylethynyl]phenoxy]propan-1-yl]-2-azabicyclo[2.2.2]octan-3-one]	–
15 nM	O=C1C2CCC(CC2)N1CCCOc1ccc(C#Cc2cccc3ncccc23)cc1 [Compound 22, 2-[3-[4-(quinolin-5-yl-ethynyl)phenoxy]propan-1-yl]-2-azabicyclo[2.2.2]-octan-3-one hydrochloride]	inhibition at 30 mg/kg ([2]; Rattus norvegicus): 25.1%

More lines, now with the values behind:

SMILES	IC50 [1]	other results
CCOC(=O)C#Cc1ccc(OCCCN2CC3CCC2CC3)cc1 [Compound 12, Ethyl 4-[3-(2-azabicyclo[2.2.2]octan-2-yl)propoxy]phenylpropiolate hydrochloride]	64 nM	–
CCOC(=O)c1ccc(C#Cc2ccc(OCCCN3CC4CCC3CC4)cc2)cc1 [Compound 20, Ethyl 4-[4-[3-(2-azabicyclo[2.2.2]octan-2-yl)propoxy]phenylethynyl]-benzoate hydrochloride]	690 nM	–
O=C(O)C#Cc1ccc(OCCCN2C(=O)C3CCC2CC3)cc1 [Compound 7, 4-[3-(3-oxo-2-azabicyclo[2.2.2]octan-2-yl)propoxy]phenylpropiolic acid]	490 nM	–
C(#Cc1cccc2ncccc12)c1ccc(OCCCN2CC3CCC2CC3)cc1 [Compound 25, 2-[3-[4-(quinolin-5-yl-ethynyl)phenoxy]propan-1-yl]-2-azabicyclo[2.2.2]-octane dihydrochloride]	31 nM	–
C#Cc1ccc(OCCCN2C(=O)C3CCC2CC3)c(CC=C)c1 [Compound 37, 2-[3-[(2-allyl-4-ethynyl)phenoxy]propane-1-yl]-2-azabicyclo[2.2.2]oct-3-one]	–	Inhibition of SQS (N.E.; no effect at a dose in the parentheses) [1]: N.E.
CCOC(=O)c1ccc(C#Cc2ccc(OCCCN3C(=O)C4CCC3CC4)cc2)cc1 [Compound 15, Ethyl 4-[4-[3-(3-oxo-2-azabicyclo[2.2.2]octan-2-yl)propoxy]phenylethynyl]-benzoate]	410 nM	–
O=C1C2CCC(CC2)N1CCCOc1ccc(C#Cc2ccc(-c3cccc4ncccc34)cc2)cc1 [Compound 23, 2-[3-[4-[4-(quinolin-5-yl)phenylethynyl]phenoxy]propan-1-yl]-2-azabicyclo[2.2.2]octan-3-one hydrochloride]	69 nM	inhibition at 30 mg/kg ([2]; Rattus norvegicus): 46.7%
C#Cc1ccc(OCCN2C(=O)C3CCC2CC3)cc1 [Compound 13, 2-[2-(4-ethynylphenoxy)ethyl]-2-azabicyclo[2.2.2]octane-3-one]	–	inhibition at 30 mg/kg ([2]; Rattus norvegicus): 30.3%; Inhibition of SQS (N.E.; no effect at a dose in the parentheses) [1]: N.E.
CCOC(=O)C#Cc1ccc(OCCCN2C(=O)C3CCC2CC3)cc1 [Compound 6, Ethyl 4-[3-(3-oxo-2-azabicyclo[2.2.2]octan-2-yl)propoxy]phenylpropiolate]	3100 nM	–
C#Cc1ccc(OCCCN2CC3CCC2CC3)c(CC=C)c1 [Compound 38, 2-[3-[(2-Allyl-4-ethynyl)phenoxy]propane-1-yl]-2-azabicyclo[2.2.2]octane hydrochloride]	11 nM	inhibition at 30 mg/kg ([2]; Rattus norvegicus): 50.4%
O=C(O)c1ccc(C#Cc2ccc(OCCCN3C(=O)C4CCC3CC4)cc2)s1 [Compound 21, 5-[4-[3-(3-oxo-2-azabicyclo[2.2.2]octan-2-yl)propoxy]phenylethynyl]-thiophene-2-carboxylic acid]	56 nM	–
O=C(O)c1ccc(C#Cc2ccc(OCCCN3C(=O)C4CCC3CC4)cc2)cc1 [Compound 16, 4-[4-[3-(3-oxo-2-azabicyclo[2.2.2]octan-2-yl)propoxy]phenylethynyl]-benzoic acid]	23 nM	Inhibition of cholesterol biosynthesis (N.E.; no effect at a dose in the parentheses) [2]: N.E.
C#Cc1ccc(OCCCN2C(=O)C3CCC2CC3)cc1 [Compound 5, 2-[3-(4-ethynylphenoxy)propane-1-yl]-2-azabicyclo[2.2.2]octane-3-one]	11 nM	ED50 ([2]; Rattus norvegicus, oral gavage, [H] mevalonolactone i.p. after 1 hr): 13.4 mg/kg
